{"source": "paper PMC6651024", "about": "“LIR Motif-Containing Hyperdisulfide β-Ginkgotide is Cytoprotective, Adaptogenic, and Scaffold-Ready” (Molecules, 2019)", "key": {"SH-SY5Y cells": {"test_system": "SH-SY5Y cells", "assay": "Hypoxia-reoxygenation injury, MTT assay, SH-SY5Y", "format": "cell-based, human", "conditions": "1 µM peptide, 24 h hypoxia then 24 h normoxia, triplicates", "description": "Cells were cultured with or without β-gB1 and its S-alkylated β-gB1, first under the hypoxic condition for 24 h and then at a normal oxygen environment for another 24 h. The cell viability under hypoxia-reoxygenation condition was assessed by the MTT assay.\nRat cardio-myoblast cells (H9c2) and […] neuron-like SH-SY5Y cells were purchased from ATCC and maintained in DMEM (Dulbecco’s modified eagle medium) medium supplemented with 10% fetal bovine serum (FBS), 10,000 U/mL of penicillin, and 10,000 µg/mL of streptomycin at 37 °C, 5% CO2.\nCells were seeded in a cell culture medium with/without β-gB1 and incubated at 37 °C, 5% CO2 overnight. The next day, the cells were locked inside a BD GasPak EZ anaerobe pouch system (BD Diagnostics, MD) and incubated at 37 °C for the next 48 h for the hypoxia condition. In addition, the cells were cultured under a normal oxygenated environment for the normoxic control. In hypoxia-reoxygenation experiments, the cells were incubated for 24 h in hypoxic conditions before being incubated for another 24 h under normoxia.\nPhosphate-buffered saline (PBS) was used as a vehicle control."}, "[1]": {"test_system": "BHK (baby hamster kidney) cell line", "conditions": "MTT assay; cited from earlier work", "text": "(§1) In addition, β-gB1 is non-toxic to Vero and BHK (baby hamster kidney) cell lines based on an MTT assay. […] LDH is a cytoplasmic enzyme which is rapidly released int ..."}, "Vero cell line": {"test_system": "Vero cell line", "conditions": "MTT assay; cited from earlier work", "text": "as §1"}}, "note": "Where a SMILES comes first, the peptide text is derived from it."}
{"smiles": "CC[C@H](C)[C@@H]1NC(=O)[C@@H]2CSSC[C@H](NC(=O)CNC(=O)[C@@H](NC(=O)[C@H](CCC(=O)O)NC(=O)[C@@H](N)Cc3ccc(O)cc3)[C@@H](C)O)C(=O)N[C@@H](CCCCN)C(=O)N[C@@H](CCCNC(=N)N)C(=O)N[C@H]3CSSC[C@@H](C(=O)O)NC(=O)[C@H](CSSC[C@H](NC3=O)C(=O)N[C@@H](Cc3ccc(O)cc3)C(=O)N[C@@H](CC(C)C)C(=O)N[C@@H](CC(=O)O)C(=O)N[C@@H](CCC(=O)O)C(=O)N[C@@H](Cc3ccc(O)cc3)C(=O)NCC(=O)N2)NC(=O)[C@H](CCCNC(=N)N)NC1=O", "note": "[β-gB1] (HELM PEPTIDE1{Y.E.T.G.C.K.R.C.C.Y.L.D.E.Y.G.C.I.R.C.C}$PEPTIDE1,PEPTIDE1,5:R3-16:R3|PEPTIDE1,PEPTIDE1,8:R3-20:R3|PEPTIDE1,PEPTIDE1,9:R3-19:R3$$$V2.0; N-terminus and C-terminus assumed)", "values": [{"measurement": "Increase of cell survivability under hypoxia-reoxygenation", "setting": "SH-SY5Y cells", "result": 19, "unit": "%"}, {"measurement": "Toxicity to cell line", "setting": "[1]", "result": "non-toxic"}, {"measurement": "Toxicity to cell line", "setting": "Vero cell line", "result": "non-toxic"}]}
